From patent US10035819B2, “PPAR agonists and methods of use thereof” (The Salk Institute for Biological Studies, priority 2014, dated 2018)
In brackets after ≈: the same amount, converted by molar mass.

Assays:
[1] = system: C57BL6J mice, freeze burn injury to the TA muscle; experiment: Acute pharmacological activation of PPARδ with oral GW501516, freeze burn injury to the TA muscle; assay type: in vivo
Procedure: A stainless steel 1 g weight (Mettler-Toledo) equilibrated to the temperature of dry ice was placed directly on the exposed TA for 10 seconds. Following the thermal injury, incision was closed using VetBond (3M). All injury procedures were performed on the left leg, and the right leg was used as control.
Sterile 1% w/v Evans Blue dye in PBS was intraperitoneally injected at 1% volume relative to the body mass of an animal. 7 hours after the injection, injured TA muscles were harvested and snap-frozen by isopentane quenching in liquid nitrogen. Frozen sections were cut in 10 μm thickness, fixed in ice-cold acetone, dipped in xylene and mounted with DPX. Proportion of the stained area over the total area was measured using ImageJ software.
50 mg/kg body weight of BrdU (Sigma) was injected intraperitoneally as solution of 10 mg/mL BrdU in saline. TA muscles were harvested at 7 days after injury and processed for paraffin sections as described above. BrdU incorporation was visualized using the BrdU Labeling and Detection Kit I (Roche) and BrdU+ nuclei were counted and represented as a proportion of total nuclei in a field.
Whole or partial tissues were homogenized by Polytron probe homogenizer in Trizol reagent (Invitrogen). Total RNA was extracted from the homogenates according to the manufacturer's protocol. 1 μg of DNase-treated total RNA was reverse transcribed using Superscript II Reverse Transcriptase (Invitrogen) according to the manufacturer's instructions. cDNAs were diluted 1/40 with ddH2O and used as templates in RT-QPCR reactions with SYBRGreenER qPCR SuperMix detection system (Invitrogen). Samples were prepared in technical triplicates and relative mRNA levels were calculated by using the standard curve methodology and normalized against GAPDH mRNA levels in the same samples.

[2] = Pharmacokinetics in male Wistar rats (i.v. and p.o.); assay type: in vivo
Procedure: In this example, the PK profile of several PPARδ agonists disclosed herein in male CD-1 mice or Wistar rats was determined. Similar methods can be used to analyze other compounds provided herein. […]
(§1) The concentration of the compound in plasma was determined, as illustrated in FIGS. 9A-9E.

[3] = assay type: in vitro ADME
[4] = Pharmacokinetics in male CD-1 mice (i.v. and p.o.); assay type: in vivo
Procedure: The oral bioavailability and serum half lives of PPARδ ligands were compared in mice. The pharmacokinetics of PPARδ ligands delivered orally (10 mg/kg p.o.) and intravenously (3 mg·kg i.v.) were determined by mass spectrometry.
In this example, the PK profile of several PPARδ agonists disclosed herein in male CD-1 mice or Wistar rats was determined. Similar methods can be used to analyze other compounds provided herein.
(quantity sufficient ie made up to a final volume of 100% with water). All compounds were separately administered to CD-1 mice at 3 mg/kg iv or 10 mg/kg po.
as §1

FGF1a promoter = experiment: Luciferase reporter assay of the FGF1a promoter co-transfected with PPARδ; assay type: cell-based; conditions: with ligand
Excerpt: Increased vasculature is one of the hallmarks of oxidative myofibers, which facilitates introduction of immune cells and also supports increased number of satellite cells.

[5] = Solubility (kinetic, thermodynamic); assay type: physicochemical
[6] = rat, iv, male Wistar rats, 3 mg/Kg i.v., plasma
[7] = rat, po, male Wistar rats, 10 mg/Kg p.o., plasma
[8] = male, mouse, iv, CD-1 mice, 3 mg/Kg i.v., plasma
[9] = male, mouse, po, CD-1 mice, 10 mg/Kg p.o., plasma

Cc1cc(SCc2sc(-c3ccc(C(F)(F)F)cc3)nc2C)ccc1OCC(=O)O [GW501516]
Evans Blue dye uptake, stained proportion of muscle cross sectional area (CSA) ([1]; 5 mg/kg orally, 4 days prior to and 5 days after freeze burn injury, 5 days after injury (vehicle 7.6%)): 4.9% | initial inflammatory responses ([1]; 12 hours after injury, with and without ligand): similar | TNFα and macrophage marker F4/80 expression by QPCR ([1]; 3 days post injury, TA muscle): significant reduction | reduction in damaged muscle fibers ([1]; 5 days after the injury, vs vehicle): 34.7% | Notch1 and Hes1 expression by QPCR ([1]; 9 day treatment): increases | PPARδ target genes (PDK4, CPT1b, catalase) in the TA muscle by QPCR ([1]; 9 day treatment, 5 mg/kg orally): Up-regulation | number of quiescent satellite cells ([1]; 9 days or 4 weeks of ligand treatment): not significantly affected | proliferative cell number (BrdU) ([1]; BrdU injection at 48 hours after the injury): marked increase | Kel ([2]; male Wistar rats, 3 mg/Kg i.v., plasma): 0.09 h⁻¹ | F ([2]; male Wistar rats, 10 mg/Kg p.o. vs 3 mg/Kg i.v.): ~100% | clearance ([2]; male, Wistar, rat, plasma, iv, 3 mg/kg): 5.1 mL/min/kg | Vd ([2]; male, Wistar, rat, plasma, iv, 3 mg/kg, male Wistar rats, 3 mg/Kg i.v., plasma, read-out: Vss): 1.99 L/kg | Vd ([2]; male, Wistar, rat, plasma, iv, 3 mg/kg, male Wistar rats, 3 mg/Kg i.v., plasma, read-out: Vz): 3.58 L/kg | half-life ([2]; male, Wistar, rat, plasma, iv, 3 mg/kg, read-out: Beta T1/2 (converted)): 8.07 h | half-life ([2]; male, Wistar, rat, plasma, po, 10 mg/kg, read-out: T1/2 (converted)): 6.21 h | AUC(0-inf) [2, 6]: 9960 ng·h/mL | C0 [2, 6]: 5280 ng/mL | MRT [2, 6]: 4.3 h | AUC(0-inf) [2, 7]: 35100 ng·h/mL | Cmax [2, 7]: 6920 ng/mL | Tmax [2, 7]: 2 h | % Parent remained at 15 min, MLM [3]: 93/76% | % Parent remained at 60 min, MLM [3]: 93/76% | Kel ([4]; CD-1 mice, 3 mg/Kg i.v., plasma): 0.11 h⁻¹ | F ([4]; CD-1 mice, 10 mg/Kg p.o. vs 3 mg/Kg i.v.): 82.1% | clearance ([4]; male, CD-1, mouse, plasma, iv, 3 mg/kg): 4.42 mL/min/kg | Vd ([4]; male, CD-1, mouse, plasma, iv, 3 mg/kg, CD-1 mice, 3 mg/Kg i.v., plasma, read-out: Vss): 1.71 L/kg | Vd ([4]; male, CD-1, mouse, plasma, iv, 3 mg/kg, CD-1 mice, 3 mg/Kg i.v., plasma, read-out: Vz): 2.46 L/kg | half-life ([4]; male, CD-1, mouse, plasma, iv, 3 mg/kg, read-out: Beta T1/2 (converted)): 6.44 h | half-life ([4]; male, CD-1, mouse, plasma, po, 10 mg/kg, read-out: T1/2 (converted)): 5.98 h | AUC(0-inf) [4, 8]: 11300 ng·h/mL | C0 [4, 8]: 5560 ng/mL | MRT [4, 8]: 4.96 h | AUC(0-inf) [4, 9]: 31000 ng·h/mL | Cmax [4, 9]: 3290 ng/mL | Tmax [4, 9]: 2 h | FGF1a promoter luciferase reporter, PPRE-dependent (FGF1a promoter): activation | solubility kinetic ([5]; kinetic from dmso stock): 195 µM (≈ 88.4 µg/mL) | solubility thermodynamic ([5]; thermodynamic from solid): 246 µM (≈ 112 µg/mL)
